pEC50, pKi: −log10 of the molar value.

Assay [1] concerns the target T1, BRD4 (BDI_K57-E168) (Homo sapiens, UniProt O60885).
T1 construct: BD1: amino acids K57-E168; made in house
Nature of the assay: TR-FRET bromodomain binding assay, BRD4 first bromodomain. Conditions: His-tagged BD1, 100 nM Alexa647 probe; Ki calculated from IC50; dilution protocol A-G. An outline of the steps:
(§1)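 His-tagged BRD4 BD1 (K57-E168) or BD2 (8 nM) with Eu-anti-His antibody and Alexa647-labeled BET-inhibitor probe (100 nM for BDI, 30 nM for BDII), pH 6.0 phosphate buffer, 2% DMSO, 1 h at room temperature. TR-FRET (Ex 340, Em 495/520); IC50 by 4-parameter fit, converted to Ki using probe Kd and concentration.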

The target in assay [2] is T2, BRD4 (BDII_E352-M457) (Homo sapiens, UniProt O60885).
T2 construct: made in house
Nature of the assay: TR-FRET bromodomain binding assay, BRD4 second bromodomain. In outline: as §1
Background: TR-FRET usually uses a lanthanide donor and a delayed reading to cut background.

For assay [3], the system named is breast cancer cell line MX-1. Nature of the assay: MX-1 cell line proliferation assay (3-day, Cell Titer Glo). Type of assay: cell-based. The note with it: Homo sapiens, MX1, MX-1 cells, 72 h, top concentration 3 μM, read-out: Cellular proliferation: EC50. As to the method:
The impact of compounds of the Examples on cancer cell proliferation was determined using the breast cancer cell line MX-1 (ATCC) in a 3-day proliferation assay and the data are reported in Table 1. MX-1 cells were maintained in RPMI 1640 medium (Sigma) supplemented with 10% FBS at 37 C.° and an atmosphere of 5% CO2. For compound testing, MX-1 cells were plated in 96-well black bottom plates at a density of 5000 cells/well in 90 μL of culture media and incubated at 37° overnight to allow cell adhesion and spreading. Compound dilution series were prepared in DMSO via a 3-fold serial dilution from 3 mM to 0.1 μM. The DMSO dilution series were then diluted 1:100 in phosphate buffered saline, and 10 μL of the resulted solution were added to the appropriate wells of the MX-1 cell plate. The final compound concentrations in the wells were 3, 1, 0.3, 0.1, 0.03, 0.01, 0.003, 0.001, 0.0003 and 0.0001 μM.
Luminescence readings from the Cell Titer Glo assay were normalized to the DMSO treated cells and analyzed using the GraphPad Prism software with sigmoidal curve fitting to obtain EC50s. The minimum significant ratio (MSR) was determined to evaluate assay reproducibility (Eastwood et al., (2006) J Biomol Screen, 11: 253-261).

For `Cc1[nH]c(-c2ccccc2Oc2ccccc2)c2cc(C(=O)Nc3nccs3)[nH]c(=O)c12` [Example 26, 3-methyl-4-oxo-1-(2-phenoxyphenyl)-N-(thiazol-2-yl)-4,5-dihydro-2H-pyrrolo[3,4-c]pyridine-6-carboxamide], the negative logarithm of the Ki (pKi) (commonly −log10 of the Ki, conventionally taken in molar units) is 7.25 in assay [1] and 6.93 in assay [2]. The pEC50 in assay [3] is 6.35.
For `CCS(=O)(=O)Nc1ccc(Oc2ccc(F)cc2F)c(-c2[nH]c(C)c3c(=O)[nH]ncc23)c1` [Example 79, N-[4-(2,4-difluorophenoxy)-3-(7-methyl-1-oxo-2,6-dihydro-1H-pyrrolo[3,4-d]pyridazin-5-yl)phenyl]ethanesulfonamide], in that order: 8.75, 8.23 and 7.05.
For `Cc1[nH]c(-c2cc(Cl)ccc2Oc2ccc(F)cc2F)c2cc(C(N)=O)[nH]c(=O)c12` [Example 32, 1-[5-chloro-2-(2,4-difluorophenoxy)phenyl]-3-methyl-4-oxo-4,5-dihydro-2H-pyrrolo[3,4-c]pyridine-6-carboxamide], in that order: 7.64, 6.80 and 6.99.
For `Cc1[nH]c(-c2ccccc2Oc2ccccc2)c2cc(C(=O)NN(C)C)[nH]c(=O)c12` [Example 53, N′,N′,3-trimethyl-4-oxo-1-(2-phenoxyphenyl)-4,5-dihydro-2H-pyrrolo[3,4-c]pyridine-6-carbohydrazide], in that order: 8.08, 7.14 and 6.79.
On to `CCOC(=O)c1cc2c(-c3cc(NS(=O)(=O)CC)ccc3Oc3ccccc3)[nH]c(C)c2c(=O)[nH]1` [Example 6, ethyl 1-(5-(ethylsulfonamido)-2-phenoxyphenyl)-3-methyl-4-oxo-4,5-dihydro-2H-pyrrolo[3,4-c]pyridine-6-carboxylate], for which the negative logarithm of the Ki (pKi) in assay [1] was 8.91; in assay [2], 8.48. Moreover, the pEC50 in assay [3] is 7.48.
Take `Cc1[nH]c(-c2ccccc2Oc2ccccc2)c2cc(-c3nc(-c4ccccn4)no3)[nH]c(=O)c12` [Example 67, 3-methyl-1-(2-phenoxyphenyl)-6-(3-(pyridin-2-yl)-1,2,4-oxadiazol-5-yl)-2H-pyrrolo[3,4-c]pyridin-4(5H)-one]: the pKi was 8.02 in assay [1] and 7.11 in assay [2]. For the same molecule, the pEC50 in assay [3] was 7.09.
As for `CNC(=O)c1cc2c(-c3ccccc3Oc3ccccc3)[nH]c(C)c2c(=O)[nH]1` [Example 13, N,3-dimethyl-4-oxo-1-(2-phenoxyphenyl)-4,5-dihydro-2H-pyrrolo[3,4-c]pyridine-6-carboxamide], the pKi in assay [1] is 8.36; in assay [2] it was 7.85. Moreover, the pEC50 in assay [3] is 7.63.
Consider `Cc1[nH]c(-c2cc(S(C)(=O)=O)ccc2Oc2ccc(F)cc2F)c2cn[nH]c(=O)c12` [Example 81, 5-[2-(2,4-difluorophenoxy)-5-(methylsulfonyl)phenyl]-7-methyl-2,6-dihydro-1H-pyrrolo[3,4-d]pyridazin-1-one], for which the figures for the pKi in assay [1] and in assay [2] were 7.64 and 6.60, respectively. In addition, the pEC50 in assay [3] was 6.40.
The matching figures for `Cc1[nH]c(-c2cc(NS(C)(=O)=O)ccc2Oc2ccc(F)cc2F)c2cn[nH]c(=O)c12` [Example 80, N-[4-(2,4-difluorophenoxy)-3-(7-methyl-1-oxo-2,6-dihydro-1H-pyrrolo[3,4-d]pyridazin-5-yl)phenyl]methanesulfonamide]: 8.49, 7.61 and 7.04.
The matching figures for `Cc1[nH]c(-c2ccccc2Oc2ccccc2)c2nc[nH]c(=O)c12` [Example 85, 5-methyl-7-(2-phenoxyphenyl)-3,6-dihydro-4H-pyrrolo[3,4-d]pyrimidin-4-one]: 7.03, 6.14 and 5.91.
For `CCOC(=O)c1cc2c(-c3ccccc3Oc3ccc(F)cc3F)[nH]c(C)c2c(=O)[nH]1` [Example 21, ethyl 1-[2-(2,4-difluorophenoxy)phenyl]-3-methyl-4-oxo-4,5-dihydro-2H-pyrrolo[3,4-c]pyridine-6-carboxylate], in that order: 7.61, 6.55 and 6.98.
As for `Cc1[nH]c(-c2ccccc2Oc2ccccc2)c2cc(C(=O)N3CCC(O)CC3)[nH]c(=O)c12` [Example 30, 6-(4-hydroxypiperidine-1-carbonyl)-3-methyl-1-(2-phenoxyphenyl)-2H-pyrrolo[3,4-c]pyridin-4(5H)-one], the values for the pKi in assay [1] and in assay [2] were 7.03 and 7.31, respectively. Further, the pEC50 in assay [3] was 5.87.
The matching figures for `Cc1[nH]c(-c2cc(NS(C)(=O)=O)ccc2Oc2ccc(F)cc2F)c2cc(C(N)=O)[nH]c(=O)c12` [Example 19, 1-(2-(2,4-difluorophenoxy)-5-(methylsulfonamido)phenyl)-3-methyl-4-oxo-4,5-dihydro-2H-pyrrolo[3,4-c]pyridine-6-carboxamide]: 8.78, 8.22 and 6.57.
Take `Cc1[nH]c(-c2ccccc2Oc2ccccc2)c2cc(C(=O)NCCN3CCCC3)[nH]c(=O)c12` [Example 25, 3-methyl-4-oxo-1-(2-phenoxyphenyl)-N-[2-(pyrrolidin-1-yl)ethyl]-4,5-dihydro-2H-pyrrolo[3,4-c]pyridine-6-carboxamide]: the pKi in assay [1] is 8.51; in assay [2], 7.03. The pEC50 in assay [3] was 6.79.
The matching figures for `Cc1[nH]c(-c2ccccc2Oc2ccccc2)c2cc(C(=O)N3CCOCC3)[nH]c(=O)c12` [Example 15, 3-methyl-6-(morpholine-4-carbonyl)-1-(2-phenoxyphenyl)-2H-pyrrolo[3,4-c]pyridin-4(5H)-one]: 6.98, 6.51 and 5.95.
The matching figures for `CCOC(=O)c1cc2c(-c3cc(S(C)(=O)=O)ccc3Oc3ccc(F)cc3F)[nH]c(C)c2c(=O)[nH]1` [Example 39, ethyl 1-[2-(2,4-difluorophenoxy)-5-(methylsulfonyl)phenyl]-3-methyl-4-oxo-4,5-dihydro-2H-pyrrolo[3,4-c]pyridine-6-carboxylate]: 7.92, 7.29 and 6.65.
Consider `Cc1[nH]c(-c2cc(NS(C)(=O)=O)ccc2Oc2ccccc2)c2cc(C(N)=O)[nH]c(=O)c12` [Example 20, 3-methyl-1-(5-(methylsulfonamido)-2-phenoxyphenyl)-4-oxo-4,5-dihydro-2H-pyrrolo[3,4-c]pyridine-6-carboxamide], for which the pKi was 8.79 in assay [1] and 8.62 in assay [2]. Besides, in assay [3], the pEC50 was 6.84.
`Cc1[nH]c(-c2ccccc2Oc2ccccc2)c2cc(-c3nc(Cn4cncn4)no3)[nH]c(=O)c12` [Example 64, 6-(3-((1H-1,2,4-triazol-1-yl)methyl)-1,2,4-oxadiazol-5-yl)-3-methyl-1-(2-phenoxyphenyl)-2H-pyrrolo[3,4-c]pyridin-4(5H)-one]: the pKi in assay [1] was 8.64; in assay [2], 8.15. The pEC50 in assay [3] is 7.53.
Regarding `COC(=O)c1cc2c(-c3cc(NS(C)(=O)=O)ccc3Oc3ccccc3)[nH]c(C)c2c(=O)[nH]1` [Example 3, methyl 3-methyl-1-(5-(methylsulfonamido)-2-phenoxyphenyl)-4-oxo-4,5-dihydro-2H-pyrrolo[3,4-c]pyridine-6-carboxylate], the pKi was 8.48 in assay [1] and 7.70 in assay [2]. In assay [3], the pEC50 was 7.38.
For `COCc1cc2c(-c3ccccc3Oc3ccccc3)[nH]c(C)c2c(=O)[nH]1` [Example 44, 6-(methoxymethyl)-3-methyl-1-(2-phenoxyphenyl)-2,5-dihydro-4H-pyrrolo[3,4-c]pyridin-4-one], in that order: 7.18, 6.37 and 6.63.
The matching figures for `Cc1[nH]c(-c2ccccc2Oc2ccccc2)c2cc(CO)[nH]c(=O)c12` [Example 18, 6-(hydroxymethyl)-3-methyl-1-(2-phenoxyphenyl)-2H-pyrrolo[3,4-c]pyridin-4(5H) one]: 7.82, 7.50 and 7.05.
For `Cc1[nH]c(-c2ccccc2Oc2ccccc2)c2cc(-c3nc(-c4cnccn4)no3)[nH]c(=O)c12` [Example 65, 3-methyl-1-(2-phenoxyphenyl)-6-(3-(pyrazin-2-yl)-1,2,4-oxadiazol-5-yl)-2H-pyrrolo[3,4-c]pyridin-4(5H)-one], in that order: 8.12, 7.55 and 7.15.

(Values after patent publication US9050346B2, “Bromodomain inhibitors” (AbbVie Inc., priority 2013, dated 2015).)
